Results: EP0097127A2, “Cephalosporin derivatives, process for their preparation and pharmaceutical compositions containing them” (CIBA-GEIGY AG, priority 1982, dated 1983)

Assays:
Experiment in all cases: Chemotherapeutic activity against systemic infection in mice
Assay type in all cases: in vivo
Proteus mirabilis = details: systemic infection in mice with Proteus mirabilis; oral application
Experimental: (§1) Die Verbindungen der Formel I, worin Am eine freie Aminogruppe ist und ihre pharmazeutisch verwendbaren, nichttoxischen Salze sind wertvolle, antibiotisch wirksame Substanzen, die insbesondere als antibakterielle Antibiotika verwendet werden können. Beispielsweise haben sie in vivo bei oraler Applikation an der Maus bei systemischen Infektionen mit Staphylococcus aureus eine ED50 von etwa 70-100 mg/kg, und bei systemischen Infektionen mit Enterobakterien, z.B. Escherichia coli, Klebsiella pneumonia, Proteus mirabilis oder Proteus morganii eine ED50 von etwa 0.35 bis 100 mg/kg.
(§2) Chemotherapeutische Wirksamkeit gegen systemische Infektionen in Mäusen.

Klebsiella pneumonia = details: Klebsiella pneumoniae; systemic infection in mice with Klebsiella pneumonia; oral application
Experimental: as §1, §2

[1] = test system: Staphylococcus aureus 10B; details: systemic infection in mice with Staphylococcus aureus 10B; oral application
Experimental: as §1, §2

Escherichia coli 205 = details: systemic infection in mice with Escherichia coli 205; oral application
Experimental: as §1, §2

Escherichia coli 2018 = details: systemic infection in mice with Escherichia coli 2018; oral application
Experimental: as §1, §2

Proteus morganii = details: Morganella morganii; systemic infection in mice with Proteus morganii; oral application
Experimental: as §1, §2

Compound: CO/N=C(\C(=O)N[C@@H]1C(=O)N2C(C(=O)OCC(=O)OC3CCCCC3)=CCS[C@H]12)c1csc(N)n1 [Testverbindung 2, Ceftizoxime-cyclohexyloxycarbonylmethylester]
- ED50 (Proteus mirabilis): > 30 mg/kg
- ED50 (Klebsiella pneumonia): 7 mg/kg
- ED50 [1]: > 100 mg/kg
- ED50 (Escherichia coli 205): 0.5 to 5 mg/kg
- ED50 (Escherichia coli 2018): 0.4 mg/kg
- ED50 (Proteus morganii): > 100 mg/kg

Compound: CO/N=C(\C(=O)N[C@@H]1C(=O)N2C(C(=O)OCC(=O)O[C@@H]3C[C@H](C)CC[C@H]3C(C)C)=CCS[C@H]12)c1csc(N)n1 [Testverbindung 3, Ceftizoxime-(9)-menthyloxycarbonylmethylester]
- ED50 (Proteus mirabilis): ≥ 30 mg/kg
- ED50 (Klebsiella pneumonia): 4 mg/kg
- ED50 [1]: 30 to 100 mg/kg
- ED50 (Escherichia coli 205): 4 mg/kg
- ED50 (Escherichia coli 2018): 1.5 mg/kg
- ED50 (Proteus morganii): 100 mg/kg

Compound: CO/N=C(\C(=O)N[C@@H]1C(=O)N2C(C(=O)OCC(=O)O[C@@H]3C[C@@H]4CC[C@@]3(C)C4(C)C)=CCS[C@H]12)c1csc(N)n1 [Testverbindung 1, Ceftizoxime-(ℓ)-bornyloxycarbonylmethylester]
- ED50 (Proteus mirabilis): 10 mg/kg
- ED50 (Klebsiella pneumonia): 6 mg/kg
- ED50 [1]: 70 mg/kg
- ED50 (Escherichia coli 205): 1 mg/kg
- ED50 (Escherichia coli 2018): 0.35 mg/kg
- ED50 (Proteus morganii): 30 mg/kg
